From PubChem BioAssay (NCI)
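96-well plates; 48 h exposure; 5 concentrations. Endpoints by linear interpolation between flanking doses. Not reached: highest tested concentration assigned. TGI: concentration producing complete growth inhibition.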

Tests used:
Assay in all cases: DTP human tumour cell line panel, 48 h
[1] = system: ACHN renal
[2] = system: NCI-H226 lung
[3] = system: HT29 colon
[4] = system: HCT-15 colon
[5] = system: UACC-62 melanoma
[6] = system: SW-620 colon
[7] = system: IGROV1 ovarian
[8] = system: MALME-3M melanoma
[9] = system: UACC-257 melanoma
[10] = system: DMS 114 small cell lung
[11] = system: HCC-2998 colon
[12] = system: UO-31 renal
[13] = system: RXF 393 renal
[14] = system: OVCAR-3 ovarian
[15] = system: RPMI-8226 leukemia
[16] = system: COLO 205 colon
[17] = system: M14 melanoma
[18] = system: DLD-1 colon
[19] = system: HOP-62 NSCLC
[20] = system: SN12C renal
[21] = system: SNB-78 CNS
[22] = system: EKVX NSCLC
[23] = system: KM20L2 colon
[24] = system: MOLT-4 leukemia
[25] = system: TK-10 renal
[26] = system: NCI-H23 lung
[27] = system: LOX IMVI melanoma
[28] = system: OVCAR-8 ovarian
[29] = system: K-562 leukemia
[30] = system: SR leukemia
[31] = system: OVCAR-5 ovarian
[32] = system: LXFL 529 NSCLC
[33] = system: SNB-75 CNS
[34] = system: M19-MEL melanoma
[35] = system: SK-MEL-2 melanoma
[36] = system: HL-60(TB) leukemia
[37] = system: OVCAR-4 ovarian
[38] = system: SK-MEL-5 melanoma
[39] = system: HOP-92 NSCLC
[40] = system: SF-268 CNS
[41] = system: 786-0 renal
[42] = system: HCT-116 colon
[43] = system: CAKI-1 renal
[44] = system: XF 498 CNS
[45] = system: A549 NSCLC
[46] = system: U251 CNS
[47] = system: SK-MEL-28 melanoma
[48] = system: A498 renal
[49] = system: SK-OV-3 ovarian
[50] = system: CCRF-CEM leukemia
[51] = system: SF-295 CNS
[52] = system: DMS 273 small cell lung
[53] = system: KM12 colon
[54] = system: SF-539 CNS
[55] = system: SNB-19 CNS
[56] = system: NCI-H460 lung
[57] = system: HOP-18 NSCLC
[58] = system: NCI-H522 lung

Measured: TGI

C/C(COc1ccccc1)=N\NC(N)=S
not listed: [55] | [56] | [57] | [58]
> 100 µM: all other assays above

Cc1nc2cc3[nH]c4ccccc4c(=O)c3cc2s1
not listed: [18] | [27] | [47]
> 100 µM: all other assays above

COc1ccc(-c2oc(C=Nc3ccccc3)c([N+](=O)[O-])c2-c2ccc(OC)c(OC)c2)cc1OC
not listed: [22] | [35] | [48] | [50] | [57]
> 100 µM: all other assays above

COC(=O)C12CCC(CC1=O)C2(C)C (stereo not given)
not listed: [21] | [31] | [32] | [34] | [35] | [40] | [43] | [50] | [53] | [58]
> 100 µM: all other assays above
